Laboratory results reported in US9260439B2, “Dihydropyrrolopyrimidine derivatives” (PFIZER INC., priority 2014, dated 2016).

Target: truncated PI3Kα (p110α/iSH2 p85α) (Homo sapiens (Human), UniProt P42336)
Assay: PI3KA_Act fluorescence polarization kinase assay (Ki)
Type: biochemical
Settings: 1 mM ATP
Procedure, shortened: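 p110α/iSH2 p85α (0.5 nM) was reacted with 30 μM sonicated PIP2 in 50 mM HEPES pH 7.4, 150 mM NaCl, 5 mM MgCl2, 1 mM DTT and 0.05% CHAPS for 30 min at room temperature, then stopped with EDTA. PIP3 was detected by fluorescence polarization (GST-Grp1 PH domain/TAMRA-PIP3), and Ki came from a Morrison tight-binding fit.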

truncated PI3Kα (p110α/iSH2 p85α), sequence (P42336 whole entry, the tested form may be a part): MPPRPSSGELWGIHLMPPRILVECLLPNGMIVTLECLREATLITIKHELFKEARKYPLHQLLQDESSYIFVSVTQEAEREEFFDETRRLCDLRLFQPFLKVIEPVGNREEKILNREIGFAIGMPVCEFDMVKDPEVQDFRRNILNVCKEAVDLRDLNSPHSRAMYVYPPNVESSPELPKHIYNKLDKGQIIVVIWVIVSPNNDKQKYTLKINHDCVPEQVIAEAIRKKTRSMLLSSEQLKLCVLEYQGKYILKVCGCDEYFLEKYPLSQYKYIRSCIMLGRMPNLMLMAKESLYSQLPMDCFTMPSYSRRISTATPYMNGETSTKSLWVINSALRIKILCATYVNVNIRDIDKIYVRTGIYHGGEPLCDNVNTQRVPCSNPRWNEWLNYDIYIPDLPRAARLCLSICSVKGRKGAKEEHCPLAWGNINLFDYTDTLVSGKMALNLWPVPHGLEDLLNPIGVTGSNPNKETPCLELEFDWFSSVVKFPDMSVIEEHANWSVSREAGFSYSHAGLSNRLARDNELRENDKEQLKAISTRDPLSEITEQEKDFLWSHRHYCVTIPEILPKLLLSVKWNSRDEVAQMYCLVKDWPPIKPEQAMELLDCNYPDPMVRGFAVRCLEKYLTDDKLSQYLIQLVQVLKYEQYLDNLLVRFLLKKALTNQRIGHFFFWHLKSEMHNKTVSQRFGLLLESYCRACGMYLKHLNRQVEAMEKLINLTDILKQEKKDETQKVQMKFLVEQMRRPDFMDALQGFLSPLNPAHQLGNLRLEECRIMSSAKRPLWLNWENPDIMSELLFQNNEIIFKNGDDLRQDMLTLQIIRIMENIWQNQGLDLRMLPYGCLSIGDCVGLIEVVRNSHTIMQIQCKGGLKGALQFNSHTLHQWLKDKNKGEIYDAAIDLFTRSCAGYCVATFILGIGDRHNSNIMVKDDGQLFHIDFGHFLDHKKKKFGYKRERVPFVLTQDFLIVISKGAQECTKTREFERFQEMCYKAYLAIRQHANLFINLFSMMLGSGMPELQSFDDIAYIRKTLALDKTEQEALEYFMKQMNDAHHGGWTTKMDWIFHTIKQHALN

Compound	PI3KA_Act Ki [pM]
CC1(C(=O)N2CC(C)(N3CCc4c(-c5cnc(N)nc5)nc(N5CCOCC5)nc43)C2)CC1 [Example 246, {3-[4-(2-aminopyrimidin-5-yl)-2-(morpholin-4-yl)-5,6-dihydro-7H-pyrrolo[2,3-d]pyrimidin-7-yl]-3-methylazetidin-1-yl}(1-methylcyclopropyl) methanone]	60
COC(=O)N1CC(C)(N2CCc3c(-c4cnc(N)nc4)nc(N4CCOCC4)nc32)C1 [Example 247, methyl 3-[4-(2-aminopyrimidin-5-yl)-2-(morpholin-4-yl)-5,6-dihydro-7H-pyrrolo[2,3-d]pyrimidin-7-yl]-3-methylazetidine-1-carboxylate]	55
CC(C)(C)OC(=O)N1CC(N2CCc3c(-c4cnc(N)nc4)nc(N4CCOCC4)nc32)C1 [Example 248, tert-butyl 3-[4-(2-aminopyrimidin-5-yl)-2-(morpholin-4-yl)-5,6-dihydro-7H-pyrrolo[2,3-d]pyrimidin-7-yl]azetidine-1-carboxylate]	212
CC(C)(C)OC(=O)N1CC(C)(N2CCc3c(-c4cnc(N)nc4)nc(N4CCOCC4)nc32)C1 [Example 249, tert-butyl 3-[4-(2-aminopyrimidin-5-yl)-2-(morpholin-4-yl)-5,6-dihydro-7H-pyrrolo[2,3-d]pyrimidin-7-yl]-3-methylazetidine-1-carboxylate]	19
CNC(=O)N1CC(C)(N2CCc3c(-c4cnc(N)nc4)nc(N4CCOCC4)nc32)C1 [Example 250, 3-[4-(2-aminopyrimidin-5-yl)-2-(morpholin-4-yl)-5,6-dihydro-7H-pyrrolo[2,3-d]pyrimidin-7-yl]-N,3-dimethylazetidine-1-carboxamide]	120
Nc1ncc(-c2nc(N3CCOCC3)nc3c2CCN3C2CN(S(=O)(=O)C3CCC3)C2)cn1 [Example 251, 5-{7-[1-(cyclobutylsulfonyl)azetidin-3-yl]-2-(morpholin-4-yl)-6,7-dihydro-5H-pyrrolo[2,3-d]pyrimidin-4-yl}pyrimidin-2-amine]	1652
Nc1ncc(-c2nc(N3CCOCC3)nc3c2CCN3C2CN(S(=O)(=O)N3CCC3)C2)cn1 [Example 252, 5-{7-[1-(azetidin-1-ylsulfonyl)azetidin-3-yl]-2-(morpholin-4-yl)-6,7-dihydro-5H-pyrrolo[2,3-d]pyrimidin-4-yl}pyrimidin-2-amine]	158
C[C@]1(N2CCc3c(-c4cnc(N)nc4)nc(N4CCOCC4)nc32)CCNC1.Cl [Example 253, 5-{7-[(3S)-3-methylpyrrolidin-3-yl]-2-(morpholin-4-yl)-6,7-dihydro-5H-pyrrolo[2,3-d]pyrimidin-4-yl}pyrimidin-2-amine hydrochloride]	160
Cl.Nc1ncc(-c2nc(N3CCOCC3)nc3c2CCN3[C@@H]2CNC[C@@H]2F)cn1 [Example 254, 5-{7-[(3R,4S)-4-fluoropyrrolidin-3-yl]-2-(morpholin-4-yl)-6,7-dihydro-5H-pyrrolo[2,3-d]pyrimidin-4-yl}pyrimidin-2-amine hydrochloride]	1893
Cl.Nc1ncc(-c2nc(N3CCOCC3)nc3c2CCN3[C@H]2CNC[C@H]2F)cn1 [Example 255, 5-{7-[(3S,4R)-4-fluoropyrrolidin-3-yl]-2-(morpholin-4-yl)-6,7-dihydro-5H-pyrrolo[2,3-d]pyrimidin-4-yl}pyrimidin-2-amine hydrochloride]	1168
CC[C@@]1(N2CCc3c(-c4cnc(N)nc4)nc(N4CCOCC4)nc32)CCNC1.Cl [Example 256, 5-{7-[(3R)-3-ethylpyrrolidin-3-yl]-2-(morpholin-4-yl)-6,7-dihydro-5H-pyrrolo[2,3-d]pyrimidin-4-yl}pyrimidin-2-amine hydrochloride]	1131
CC[C@]1(N2CCc3c(-c4cnc(N)nc4)nc(N4CCOCC4)nc32)CCNC1.Cl [Example 257, 5-{7-[(3S)-3-ethylpyrrolidin-3-yl)-2-(morpholin-4-yl)-6,7-dihydro-5H-pyrrolo[2,3-d]pyrimidin-4-yl}pyrimidin-2-amine hydrochloride]	955
